Legend:
[1] = target: Mitogen-activated protein kinase 3 (Homo sapiens, UniProt P27361); test: DRUGMATRIX: Protein Serine/Threonine Kinase, ERK1 enzyme inhibition (substrate: Myelin Basic Protein); design: species or system Escherichia coli; conditions: Not Active = under 50% inhibition at 10 µM
D(4) dopamine receptor = target: T1, D(4) dopamine receptor (Homo sapiens, UniProt P21917); test: DRUGMATRIX: Dopamine D4.2 radioligand binding (ligand: [3H] Spiperone); type: cell membranes, Membrane; conditions: cho-k1; Not Active = under 50% inhibition at 10 µM
T1 sequence (P21917 whole entry): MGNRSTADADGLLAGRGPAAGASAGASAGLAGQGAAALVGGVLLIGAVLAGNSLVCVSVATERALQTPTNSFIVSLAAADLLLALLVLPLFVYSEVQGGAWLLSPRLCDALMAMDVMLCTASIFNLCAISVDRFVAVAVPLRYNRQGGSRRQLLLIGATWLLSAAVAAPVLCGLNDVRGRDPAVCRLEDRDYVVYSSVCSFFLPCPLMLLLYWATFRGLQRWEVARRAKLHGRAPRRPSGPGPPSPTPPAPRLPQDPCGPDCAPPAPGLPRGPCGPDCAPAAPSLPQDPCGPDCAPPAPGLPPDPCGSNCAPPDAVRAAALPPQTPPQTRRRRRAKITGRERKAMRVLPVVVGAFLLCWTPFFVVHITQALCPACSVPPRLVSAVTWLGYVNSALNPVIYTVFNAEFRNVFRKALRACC

[2] = DRUGMATRIX: Tumor Necrosis Factor (TNF), Non-Selective radioligand binding (ligand: [125I] TNF-alpha); type: cell membranes, Membrane; conditions: u-937; Not Active = under 50% inhibition at 10 µM
[3] = target: Beta-1 adrenergic receptor (Homo sapiens, UniProt P08588); test: DRUGMATRIX: Adrenergic beta1 radioligand binding (ligand: [125I] Cyanopindolol); type: cell membranes, CHO-K1, Membrane; conditions: cho-k1; Not Active = under 50% inhibition at 10 µM
Chain of Beta-1 adrenergic receptor (P08588 whole entry): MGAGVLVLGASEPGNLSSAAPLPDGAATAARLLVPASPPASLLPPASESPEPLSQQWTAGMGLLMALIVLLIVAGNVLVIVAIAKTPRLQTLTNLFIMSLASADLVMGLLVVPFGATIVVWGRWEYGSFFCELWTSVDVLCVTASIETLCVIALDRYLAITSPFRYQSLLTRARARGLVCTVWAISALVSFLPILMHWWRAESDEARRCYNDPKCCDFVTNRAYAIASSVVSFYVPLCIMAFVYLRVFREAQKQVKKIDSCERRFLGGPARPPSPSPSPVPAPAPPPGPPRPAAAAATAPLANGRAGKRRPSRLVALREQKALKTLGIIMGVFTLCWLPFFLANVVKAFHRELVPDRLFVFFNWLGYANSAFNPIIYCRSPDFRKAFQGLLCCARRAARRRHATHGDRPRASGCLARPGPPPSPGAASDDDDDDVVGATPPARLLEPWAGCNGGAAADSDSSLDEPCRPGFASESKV

[4] = target: Sigma non-opioid intracellular receptor 1 (Homo sapiens, UniProt Q99720); test: DRUGMATRIX: Sigma1 radioligand binding (ligand: [3H] Haloperidol); type: cell membranes, Jurkat, Membrane; conditions: jurkat; Not Active = under 50% inhibition at 10 µM
Chain of Sigma non-opioid intracellular receptor 1 (Q99720 whole entry): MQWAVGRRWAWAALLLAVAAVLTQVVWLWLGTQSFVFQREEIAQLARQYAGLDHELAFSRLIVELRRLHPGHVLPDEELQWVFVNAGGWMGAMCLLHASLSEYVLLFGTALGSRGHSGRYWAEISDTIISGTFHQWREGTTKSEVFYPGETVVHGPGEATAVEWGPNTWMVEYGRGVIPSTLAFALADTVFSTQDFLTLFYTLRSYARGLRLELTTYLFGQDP

[5] = target: Protein kinase C alpha type (Homo sapiens, UniProt P17252); type: cell-based; conditions: sf9;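 also: inhibition of PKCalpha kinase activity measured in an enzyme assay with histone as the phosphorylation substrate; in other assays of this panel Not Active means under 50% inhibition at 10 µM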
[6] = target: T2, 5-hydroxytryptamine receptor 2C (Homo sapiens, UniProt P28335); test: DRUGMATRIX: Serotonin (5-Hydroxytryptamine) 5-HT2C radioligand binding (ligand: [3H] Mesulergine); type: cell membranes, CHO-K1, Membrane; conditions: cho-k1; Not Active = under 50% inhibition at 10 µM
T2 sequence (P28335 whole entry): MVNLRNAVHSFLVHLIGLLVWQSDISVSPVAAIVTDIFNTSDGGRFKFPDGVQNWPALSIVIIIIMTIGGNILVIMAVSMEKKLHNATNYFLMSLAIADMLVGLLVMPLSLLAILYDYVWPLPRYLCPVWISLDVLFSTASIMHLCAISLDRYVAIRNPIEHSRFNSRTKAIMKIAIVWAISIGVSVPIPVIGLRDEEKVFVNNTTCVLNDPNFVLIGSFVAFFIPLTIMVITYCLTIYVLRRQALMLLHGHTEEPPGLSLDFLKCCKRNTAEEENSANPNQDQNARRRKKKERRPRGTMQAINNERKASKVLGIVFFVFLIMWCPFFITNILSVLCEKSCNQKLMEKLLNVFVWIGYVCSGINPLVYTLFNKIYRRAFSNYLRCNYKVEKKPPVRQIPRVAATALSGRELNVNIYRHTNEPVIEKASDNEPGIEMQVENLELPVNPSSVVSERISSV

[7] = DRUGMATRIX: Sodium/nucleoside co-transporter radioligand binding (ligand: nitrobenzylthioinosine); type: cell membranes, Cavia porcellus, Dunkin-Hartley, Cerebral cortex, Membrane; conditions: Not Active = under 50% inhibition at 10 µM

Chain of Mitogen-activated protein kinase 3 (P27361 whole entry): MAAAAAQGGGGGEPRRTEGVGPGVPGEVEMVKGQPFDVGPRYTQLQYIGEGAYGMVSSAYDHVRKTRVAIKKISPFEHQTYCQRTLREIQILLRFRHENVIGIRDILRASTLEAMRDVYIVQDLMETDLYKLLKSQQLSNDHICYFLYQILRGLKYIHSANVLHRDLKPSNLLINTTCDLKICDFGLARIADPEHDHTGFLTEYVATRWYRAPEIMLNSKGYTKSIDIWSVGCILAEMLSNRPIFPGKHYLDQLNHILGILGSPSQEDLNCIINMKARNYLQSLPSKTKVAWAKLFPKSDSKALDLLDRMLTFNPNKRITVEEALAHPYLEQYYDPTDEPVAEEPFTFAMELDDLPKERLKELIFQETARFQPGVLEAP

C#C[C@]1(OC(C)=O)CC[C@H]2[C@@H]3CCC4=CC(=O)CC[C@@H]4[C@H]3CC[C@@]21C [NORETHINDRONE ACETATE]
Not Active: IC50 [1] | IC50 (D(4) dopamine receptor) | IC50 [2] | Ki [2] | IC50 [3] | IC50 [4] | IC50 [5] | IC50 [6] | IC50 [7] | Ki [7]

COC(=O)C1=C(C)NC(C)=C(C(=O)OCC(C)C)C1c1ccccc1[N+](=O)[O-] (stereo not given) [NISOLDIPINE]
Not Active: IC50 [1] | IC50 (D(4) dopamine receptor) | IC50 [2] | Ki [2] | IC50 [3] | IC50 [4] | IC50 [5] | IC50 [6] | IC50 [7] | Ki [7]

CC(=O)Nc1c(I)c(NC(C)=O)c(I)c(C(=O)O)c1I [DIATRIZOIC ACID]
Not Active: IC50 [1] | IC50 (D(4) dopamine receptor) | IC50 [2] | Ki [2] | IC50 [3] | IC50 [4] | IC50 [5] | IC50 [6] | IC50 [7] | Ki [7]

C[C@@H]1C[C@@H]([C@H](O)CC2CC(=O)NC(=O)C2)C(=O)[C@@H](C)C1 [CYCLOHEXIMIDE]
Not Active: IC50 [1] | IC50 (D(4) dopamine receptor) | IC50 [2] | Ki [2] | IC50 [3] | IC50 [4] | IC50 [5] | IC50 [6] | IC50 [7] | Ki [7]

Cc1cc(=O)n(-c2ccccc2)n1C [ANTIPYRINE]
Not Active: IC50 [1] | IC50 (D(4) dopamine receptor) | IC50 [2] | Ki [2] | IC50 [3] | IC50 [4] | IC50 [5] | IC50 [6] | IC50 [7] | Ki [7]

CC1(C)O[C@@H]2C[C@H]3[C@@H]4C[C@H](F)C5=CC(=O)CC[C@]5(C)[C@H]4[C@@H](O)C[C@]3(C)[C@]2(C(=O)CO)O1 [FLURANDRENOLIDE]
Not Active: IC50 [1] | IC50 (D(4) dopamine receptor) | IC50 [2] | Ki [2] | IC50 [3] | IC50 [4] | IC50 [5] | IC50 [6] | IC50 [7] | Ki [7]

CC(=O)OCC(=O)[C@@]1(O)CC[C@H]2[C@@H]3CCC4=CC(=O)CC[C@]4(C)[C@H]3C(=O)C[C@@]21C [CORTISONE ACETATE]
Not Active: IC50 [1] | IC50 (D(4) dopamine receptor) | IC50 [2] | Ki [2] | IC50 [3] | IC50 [4] | IC50 [5] | IC50 [6] | IC50 [7] | Ki [7]

CCN1CC(CCN2CCOCC2)C(c2ccccc2)(c2ccccc2)C1=O (stereo not given) [DOXAPRAM]
Not Active: IC50 [1] | IC50 (D(4) dopamine receptor) | IC50 [2] | Ki [2] | IC50 [3] | IC50 [4] | IC50 [5] | IC50 [6] | IC50 [7] | Ki [7]

NC(=O)c1cnccn1 [PYRAZINAMIDE]
Not Active: IC50 [1] | IC50 (D(4) dopamine receptor) | IC50 [2] | Ki [2] | IC50 [3] | IC50 [4] | IC50 [5] | IC50 [6] | IC50 [7] | Ki [7]

O=C1CC[C@H](N2C(=O)c3ccccc3C2=O)C(=O)N1
Not Active: IC50 [1] | IC50 (D(4) dopamine receptor) | IC50 [2] | Ki [2] | IC50 [3] | IC50 [4] | IC50 [5] | IC50 [6] | IC50 [7] | Ki [7]

ClC(Cl)Cl [CHLOROFORM]
Not Active: IC50 [1] | IC50 (D(4) dopamine receptor) | IC50 [2] | Ki [2] | IC50 [3] | IC50 [4] | IC50 [5] | IC50 [6] | IC50 [7] | Ki [7]

Source: ChEMBL document CHEMBL1909046, “DrugMatrix in vitro pharmacology data”
